What was measured:
[1] = 101.3 kPa, Liquid; for speed of sound: Frequency=3 MHz, Sing-around technique in a fixed-path interferometer; for mass density: Vibrating tube method
[2] = refractive index (Na D-line) (dimensionless); settings: 101.3 kPa, Liquid, Standard Abbe refractometry
[3] = refractive index (Na D-line) (dimensionless); xn = mol fraction of the nth substance listed; settings: 101.3 kPa, Liquid, Standard Abbe refractometry, x1 = 1
[4] = xn = mol fraction of the nth substance listed; settings: 101.3 kPa, Liquid, x1 = 1; for speed of sound: Frequency=3 MHz, Sing-around technique in a fixed-path interferometer; for mass density: Vibrating tube method

CCn1cc[n+](C)c1.F[B-](F)(F)F [1-ethyl-3-methylimidazolium tetrafluoroborate]
Settings | mass density, [1] [kg/m3] | refractive index, [2] | speed of sound, [1] [m/s]
298.15 K | 1277.6 | 1.4103 | 1622.9
308.15 K | 1269.9 | 1.4077 | 1599.5
318.15 K | 1262.1 | 1.4051 | 1576.5
328.15 K | 1254.6 | 1.4023 | 1553.8

COCCO [2-methoxyethan-1-ol]
Settings | mass density, [1] [kg/m3] | refractive index, [2] | speed of sound, [1] [m/s]
298.15 K | 960.9 | 1.4003 | 1345.8
308.15 K | 951.7 | 1.3961 | 1311.3
318.15 K | 942.7 | 1.3917 | 1276.4
328.15 K | 933.4 | 1.3876 | 1241.9

CCn1cc[n+](C)c1.F[B-](F)(F)F [1-ethyl-3-methylimidazolium tetrafluoroborate] + COCCO
Settings | mass density, [4] [kg/m3] | refractive index, [3] | speed of sound, [4] [m/s]
298.15 K | 1277.6 | 1.4103 | 1622.9
308.15 K | 1269.9 | 1.4077 | 1599.5
318.15 K | 1262.1 | 1.4051 | 1576.5
328.15 K | 1254.6 | 1.4023 | 1553.8
